Measured values reported in US5281581A, “Treatment of insulin resistance” (Amylin Pharmaceuticals, Inc., priority 1992, dated 1994).

Test system: rat islets of Langerhans
Assay: glucose-stimulated insulin secretion by isolated islets of Langerhans
Assay type: cell-based
Settings: glucose 10 mmol/L
Procedure: All experiments were performed by known methods used in experimental practice. See, e.g., Lacey P. E., and Kostianovsky M, Method for the isolation of intact islets of Langerhans from the rat pancreas. Diabetes 1967; 16: 35-39.
Briefly, rats were killed, and islets of Langerhans were isolated from their pancreases. Experiments were performed either with freshly isolated islets or after overnight incubation of islets (23 h) in standard culture medium and conditions at 37° C. […] Incubation of islets for these experiments was carried out in standard Krebs-Heinsleit buffer, and it was verified that the addition of the 1.0 mmol/L citrate buffer had no effect on the pH of the incubation medium. Stimulation of islets was carried out at the standard stimulatory glucose concentration of 10 mmol/L.
Production of insulin is expressed as μU/islet/h. All experiments were performed with five replicates per point. The integrity of the islet response was assessed by comparing the responses after stimulation of different aliquots of islets by two and ten mmol/L glucose, respectively, and the strength of the inhibitory response was judged against that induced by 1 μg/ml (650 nmol/L) somatostatin. […] See Arimura A. Biomed res 1981; 2: 233-257. […] See Petterson M., Ahren B., Bottcher G., Sundler F., Endocrinology 1986; 119: 865-869.
The results are shown in TABLE 5 below and all results are expressed as ± standard error of the mean (s.e.m.). The significance of differences between the means of groups is assessed by the t-test. The result of stimulation by 10 mmol/L glucose is compared with the results of stimulation at 2 mmol/L glucose. In all other experimental conditions, the significance of the inhibitory effect is measured against the effect of 10 mmol/L glucose alone.

Molecule | INSULIN PRODUCTION Mean Value (substance 650 nmol/L) [μU/islet/hr] | RELATIVE INSULIN SECRETION INHIBITION (substance 650 nmol/L) [%] | INSULIN PRODUCTION Mean Value (substance 10 nmol/L) [μU/islet/hr] | RELATIVE INSULIN SECRETION INHIBITION (substance 10 nmol/L) [%] | INSULIN PRODUCTION Mean Value (substance 100 nmol/L) [μU/islet/hr] | RELATIVE INSULIN SECRETION INHIBITION (substance 100 nmol/L) [%] | INSULIN PRODUCTION Mean Value (substance 1000 nmol/L) [μU/islet/hr] | RELATIVE INSULIN SECRETION INHIBITION (substance 1000 nmol/L) [%]
C[C@H](N)C(=O)NCC(=O)N[C@H]1CSSC[C@@H](C(=O)O)NC(=O)[C@H](CO)NC(=O)[C@H]([C@@H](C)O)NC(=O)[C@H](Cc2ccccc2)NC(=O)[C@H]([C@@H](C)O)NC(=O)[C@H](CCCCN)NC(=O)[C@H](Cc2c[nH]c3ccccc23)NC(=O)[C@H](Cc2ccccc2)NC(=O)[C@H](Cc2ccccc2)NC(=O)[C@H](CC(N)=O)NC(=O)[C@H](CCCCN)NC1=O [Somatostatin, reference compound] | 44 | 45 | – | – | – | – | – | –
CGRP 27-37 | – | – | 36 | 55 | 36 | 55 | 46 | 42
